Values quoted from earlier work as cited in US20210361677A1, “DOSING METHODS FOR TREATING INFLAMMATORY BOWEL CONDITIONS” (priority 2020, published 2021).

Conditions: enema by prior methods, two patients, FIG. 1

systemic (plasma) levels of 5-ASA after bowel movements: dramatically lower
Structure (SMILES): Nc1ccc(O)c(C(=O)O)c1 [5-ASA, 5-aminosalicylic acid]
